13 compounds from patent US6277860A, “Furopyridine antibacterials” (Pfizer Inc, priority 1999, dated 2001) can be followed below.

In brackets after ≈: the same amount, converted by molar mass. Like-named read-outs stand apart in the source and are kept apart here. A value given as a limit tells only on which side of the number the result lay.

One test concerns S. aureus 01A1105. The test can be described thus: MIC by serial agar dilution method, S. aureus 01A1105. In kind it is cell-based, Staphylococcus aureus. As to the method: (§1) Other strains which have similar characteristics of resistance to drugs may be also used. Such strains are usually available for those skilled in the art.
(§2) MIC: minimum inhibitory concentration; for more detail see below.
(§3) Each strain of S. aureus 01A1105, E faecalis 03A1069 and E. coli 51A0266 is inoculated and grown in tube containing 10 ml of Trypticase Soy Broth (TSB, DIFCO), overnight at 37° C. shaking at 200 rpm. The cell-concentration of the culture is adjusted by dilution with TSB and 50% aqueous glycerol to an optical density of 1.4 at 600 nm (light path=1 cm) and a final glycerol concentration of 20%. The diluted culture is dispensed to cryotubes, 1 ml per vial, and stored at -80° C. until its use.
(§4) Each stock culture, 200 μl for S. aureus and E. coli and 1 ml for E. faecalis, is added to 100 ml of Mueller Hinton medium (DIFCO), mixed and poured into an assay plate. The stock culture (1 ml) of S. pyogenes is inoculated into a tube containing 20 ml TSB and 1.0 ml defibrinated horse blood (Nippon Bio-Supply Center), and incubated statically at 37° C. for 24 hours. The incubated culture (5 ml) and 5 ml of sheep blood (Nippon Bio-Supply Center) were added to Mueller Hinton medium (100 ml), mixed and poured into an assay plate.
(§5) For determination of minimum inhibitory concentration (MIC), serial agar dilution method is used with same incubation condition as described above. The growth of bacteria is monitored by measuring the optical density at 655 nm.
(§6) The compound prepared in Example 1(2R*,3R*-2,3-dihydro-2-[(E)-2-buten-2-yl]-4-hydroxy-3-methyl-5-phenylfuro[2,3-b]pyridine-3-carbaldehyde ) was tested according to the assay method described in pages 12 to 14.

In test [1] the test system is Staphylococcus aureus 01A1095. The test can be described thus: MIC by serial agar dilution method, Staphylococcus aureus 01A1095. The class given is cell-based. The protocol: as §2, §5, §6
In general terms: In agar dilution the substance is mixed into plates at graded concentrations.

A further test concerns H. influenzae 54A0131. Nature of the test: MIC by serial agar dilution method, H. influenzae 54A0131. The class given is cell-based, Haemophilus influenzae. As to the method: as §2, §5, §6
The subject of another test is S. hemolyticus 01E1006. Nature of the test: MIC by serial agar dilution method, S. hemolyticus 01E1006. In kind it is cell-based. The protocol: as §2, §5, §6
In a further test the test system is E. coli 51A1051. Nature of the test: MIC by serial agar dilution method, E. coli 51A1051. In kind it is cell-based, Escherichia coli. The protocol: as §2, §5, §6
The next test has as its system S. pneumoniae 02J1095. The test can be described thus: MIC by serial agar dilution method, S. pneumoniae 02J1095. The class given is cell-based, Streptococcus pneumoniae. As to the method:
as §2, §5, §6

For test [2], the system named is Moraxella catarrhalis 87A1055. Nature of the test: MIC by serial agar dilution method, Moraxella catarrhalis 87A1055. The class given is cell-based. The protocol: as §2, §5, §6
Another test has as its system S. pneumoniae 02J1046. Nature of the test: MIC by serial agar dilution method, S. pneumoniae 02J1046. In kind it is cell-based, Streptococcus pneumoniae. As to the method: as §2, §5, §6
A further test relates to E. coli 51A1073. Nature of the test: MIC by serial agar dilution method, E. coli 51A1073. The class given is cell-based, Escherichia coli. The protocol: as §2, §5, §6
A further test relates to E. coli 51A1074. Nature of the test: MIC by serial agar dilution method, E. coli 51A1074. The class given is cell-based, Escherichia coli. The protocol: as §2, §5, §6
For test [3], the system named is Enterococcus faecalis 03A1069. The test can be described thus: MIC by serial agar dilution method, Enterococcus faecalis 03A1069. The class given is cell-based. As to the method:
as §1, §2, §3, §4, §5, §6

For the next test, the system named is various bacteria. Nature of the test: Antibacterial assay, overall result in words. The class given is cell-based. The protocol:
Sample solution is loaded and dried on a paper disk (i.d. 6 mm, thin, Advantec) which is placed on the assay plate and incubated overnight at 37° C. The activity is determined by measuring the size of growth-inhibition zone around the disk. As controls, vancomycin 1 μg and tetracycline 1 μg disks are used.
as §5, §6

For a further test, the system named is S. pyogenes 02C1068. The test can be described thus: MIC by serial agar dilution method, S. pyogenes 02C1068. In kind it is cell-based. The note with it: for MIC: Streptococcus pyogenes. As to the method:
as §1, §2
The strain of S. pyogenes 02C1068 was inoculated and grown in tubes, containing 10 ml of TSB with 0.5 ml of lysed horse blood (Nippon Bio-Supply Center), statically for 24 hours at 37° C. After the incubation, the cells were centrifuged and resuspended in a mixture of 50% aqueous glycerol (4 ml) and defibrinated sheep blood (6 ml, Nippon Bio-Supply Center). The resulting cell-suspension was dispensed to cryotubes, 1 ml per vial, and stored at -80° C. until its use.
as §4, §5, §6

Test [4] has as its system Streptococcus agalactiae 02B1023. Nature of the test: MIC by serial agar dilution method, Streptococcus agalactiae 02B1023. In kind it is cell-based. As to the method: as §2, §5, §6
The test system of test [5] is Haemophilus influenzae 54A0085. Nature of the test: MIC by serial agar dilution method, Haemophilus influenzae 54A0085. The class given is cell-based. The protocol: as §2, §5, §6
The test system of another test is S. aureus 01A1120. Nature of the test: MIC by serial agar dilution method, S. aureus 01A1120. In kind it is cell-based, Staphylococcus aureus. The protocol:
as §2, §5, §6

The subject of the next test is Escherichia coli 51A0266. Nature of the test: MIC by serial agar dilution method, Escherichia coli 51A0266. In kind it is cell-based. The protocol:
as §1, §2, §3
Each stock culture, 200 μl for S. aureus and E. coli and 1 ml for E. faecalis, is added to 100 ml of Mueller Hinton medium (DIFCO), mixed and poured into an assay plate. The stock culture (1 ml) of S. pyogenes is inoculated into a tube containing 20 ml TSB and 1.0 ml defibrinated horse blood (Nippon Bio-Supply Center), and incubated statically at 37° C. for 24 hours. […]
For determination of minimum inhibitory concentration (MIC), serial agar dilution method is used with same incubation condition as described above. The growth of bacteria is monitored by measuring the optical density at 655 nm. […]

The next test deals with S. pyogenes 02C1079. The test can be described thus: MIC by serial agar dilution method, S. pyogenes 02C1079. In kind it is cell-based. As to the method:
as §2, §5, §6

A further test relates to E. coli 51A1075. Nature of the test: MIC by serial agar dilution method, E. coli 51A1075. In kind it is cell-based, Escherichia coli. As to the method: as §2, §5, §6
Setting [6] is: Staphylococcus aureus 01A1105, antibiotic resistance of strain, read-out: MIC (minimum inhibitory concentration).
Setting [7] is: Storeptococcus pyogenes 02C1068, antibiotic resistance of strain, read-out: MIC (minimum inhibitory concentration).
Setting [8] is: Staphylococcus aureus, 01A1105, read-out: MIC (minimum inhibitory concentration).
Where [9] appears, read: Enterococcus faecalis, 03A1069, read-out: MIC (minimum inhibitory concentration).

For `COc1cccc(OC)c1C(=O)N[C@@H]1C(=O)N2[C@@H]1SC(C)(C)[C@@H]2C(=O)O` [methicillin], the MIC in the test on S. aureus 01A1105 (setting [6]) is > 256 µg/mL.

As to `C/C=C(\C)[C@H]1Oc2ncc(-c3ccccc3)c(O)c2[C@@]1(C)C=O` (relative stereo) [Example 1, 2R*,3R*-2,3-dihydro-2-[(E)-2-buten-2-yl]-4-hydroxy-3-methyl-5-phenylfuro[2,3-b]pyridine-3-carbaldehyde], the “minimum inhibitory concentration (MIC)” value is recorded as 100 in test [1]; 100 in the test with H. influenzae 54A0131; 100 in the test on S. hemolyticus 01E1006; 25 with S. aureus 01A1105 (S. aureus 01A1105, multidrug resistant); > 100 with E. coli 51A1051; 6.25 in the test with S. pneumoniae 02J1095. The “minimum inhibitory concentration (MIC)” value in [2] is given as 50; in the test on S. pneumoniae 02J1046 it was 25; in the test on E. coli 51A1073 it was > 100; in the test on E. coli 51A1074 it was > 100; in [3] (Enterococcus faecalis 03A1069, multidrug resistant) it was 100; in the test on S. pyogenes 02C1068 (S. pyogenes 02C1068, multidrug resistant) it was 6.25. The “minimum inhibitory concentration (MIC)” value in test [4] is 25; in [5], 50; with S. aureus 01A1120, 25; with Escherichia coli 51A0266 (Escherichia coli 51A0266), > 100; in the test with S. pyogenes 02C1079, 12.5; in the test on E. coli 51A1075, 100. Further, the “antibacterial activity against various bacteria” value with various bacteria is “remarkable antibacterial activity against various bacteria”.

As to `CCC[C@@H]1C[C@@H](C(=O)N[C@@H]([C@H]2O[C@H](SC)[C@H](O)[C@@H](O)[C@H]2O)[C@H](C)Cl)N(C)C1` [clindamycin], the MIC is > 256 µg/mL with S. aureus 01A1105 (setting [6]) and > 64 µg/mL in the test with S. pyogenes 02C1068 (setting [7]).

For the compound `CC[C@H]1OC(=O)[C@H](C)[C@@H](O[C@H]2C[C@@](C)(OC)[C@@H](O)[C@H](C)O2)[C@H](C)[C@@H](O[C@@H]2O[C@H](C)C[C@H](N(C)C)[C@H]2O)[C@](C)(O)C[C@@H](C)CN(C)[C@H](C)[C@@H](O)[C@]1(C)O` [azithromycin], the MIC in test [3] (Enterococcus faecalis 03A1069, antibiotic resistance of strain, read-out: MIC (minimum inhibitory concentration)) is > 256 µg/mL; in the test with S. pyogenes 02C1068 (setting [7]), > 16 µg/mL.

Take `CN(C)C1C(=O)C(C(N)=O)=C(O)C2(O)C(=O)C3=C(O)c4c(O)cccc4C(C)(O)C3CC12` (stereo not drawn) [tetracycline]: the MIC with S. aureus 01A1105 (setting [8]) is 128 µg/mL (≈ 288 µM).

For `O=C(N[C@H](CO)[C@H](O)c1ccc([N+](=O)[O-])cc1)C(Cl)Cl` [chloramphenicol], in test [3] (setting [9]), the MIC worked out at 16 µg/mL (≈ 49.5 µM).

For gentamicin, the “MIC (minimum inhibitory concentration)” value with S. aureus 01A1105 (Staphylococcus aureus 01A1105, antibiotic resistance of strain) was 64 µg/mL.

On to `CC[C@H]1OC(=O)[C@H](C)[C@@H](O[C@H]2C[C@@](C)(OC)[C@@H](O)[C@H](C)O2)[C@H](C)[C@@H](O[C@@H]2O[C@H](C)C[C@H](N(C)C)[C@H]2O)[C@](C)(O)C[C@@H](C)C(=O)[C@H](C)[C@@H](O)[C@]1(C)O` [erythromycin], for which the MIC with S. aureus 01A1105 (setting [8]) was > 256 µg/mL; in the test on S. pyogenes 02C1068 (02C1068, read-out: MIC (minimum inhibitory concentration)) it was > 64 µg/mL.

As to `O=C(O)c1cn(C2CC2)c2cc(N3CCNCC3)c(F)cc2c1=O` [ciprofloxacin], the MIC in the test with S. aureus 01A1105 (setting [8]) was > 32 µg/mL.

As to `CN[C@H](CC(C)C)C(=O)N[C@H]1C(=O)N[C@@H](CC(N)=O)C(=O)N[C@H]2C(=O)N[C@H]3C(=O)N[C@H](C(=O)N[C@H](C(=O)O)c4cc(O)cc(O)c4-c4cc3ccc4O)[C@H](O)c3ccc(c(Cl)c3)Oc3cc2cc(c3O[C@@H]2O[C@H](CO)[C@@H](O)[C@H](O)[C@H]2O[C@H]2C[C@](C)(N)[C@H](O)[C@H](C)O2)Oc2ccc(cc2Cl)[C@H]1O` [vancomycin, reference compound], the MIC is 24 µg/mL (≈ 16.6 µM) in [3] (setting [9]) and > 128 µg/mL in the test with Escherichia coli 51A0266 (Escherichia coli, 51A0266, read-out: MIC (minimum inhibitory concentration)).

Regarding `CC1(C)S[C@@H]2[C@H](NC(=O)Cc3ccccc3)C(=O)N2[C@H]1C(=O)O` [penicillin G], the values for the MIC (with S. aureus 01A1105 (setting [8]); in [3] (setting [9])) were 64 µg/mL (≈ 191 µM) and 6 µg/mL (≈ 17.9 µM), respectively.

`CC(=O)OCC1=C(C(=O)O)N2C(=O)[C@@H](NC(=O)Cc3cccs3)[C@H]2SC1` [cephalothin]: the MIC in test [3] (setting [9]) came out at 128 µg/mL (≈ 323 µM).

`CO/N=C(\C(=O)N[C@@H]1C(=O)N2C(C(=O)O)=C(COC(C)=O)CS[C@H]12)c1csc(N)n1` [cefataxime]: in the test with S. aureus 01A1105 (setting [6]), the MIC was > 256 µg/mL.
